Assay results: US6750227B2, “Method of treatment of neuropsychiatric symptoms in patients with Alzheimer's Disease” (SmithKline Beecham Corporation, priority 1998, dated 2004)
Like-named read-outs stand apart in the source and are kept apart here.

Tests used:
[1] = tested on: patients with Alzheimer's Disease; conditions: for Agitation score / Anxiety score / Apathy score / Delusions score / Depression score / Disinhibition score / Elation score / Hallucinations score / Irritability score / Wandering score / Total NPI score: All Patients, negative = improvement; for NPI total score, country adjusted difference vs placebo: all patients
Experimental: A retrospective meta-analysis on the combined data was then conducted and effects on individual symptoms assessed.
Country adjusted differences were calculated as the difference between the adjusted least square means; allowing estimates from each country to be combined in a manner whereby the most precise estimate is given more weight.
Following this analysis, a further retrospective analysis was conducted on the subgroup of patients who presented with severe behavioural disturbance at the start of the study (defined as a baseline NPI score>20). Country adjusted differences were calculated as the difference between the adjusted least square means; allowing estimates from each country to be combined in a manner whereby the most precise estimate is given more weight.

[2] = tested on: Male Sprague Dawley rats; assay: Catalepsy in the rat; conditions: 90 min after dosing, doses up to 0.3 mg/kg po
[3] = tested on: Male Sprague Dawley rats; conditions: rat, 30 min pretreatment
[4] = tested on: Male Sprague Dawley rats; conditions: rat, in vivo, 2.8 mg/kg, 90 min
[5] = Patients with baseline NPI >20, 25 μg bid
[6] = Patients with baseline NPI >20, 50 μg uid

CO/N=C(\C#N)[C@H]1CN2CCC1CC2 [Compound (I), [R-(Z)]-α-(methoxyimino)-α-(1-azabicyclo[2.2.2]oct-3-yl)acetonitrile]
Agitation score ([1]; 25 μg bid): −0.5 | Anxiety score ([1]; 25 μg bid): −0.9 | Apathy score ([1]; 25 μg bid): −1.1 | Delusions score ([1]; 25 μg bid): −0.7 | Depression score ([1]; 25 μg bid): −0.3 | Disinhibition score ([1]; 25 μg bid): −0.7 | Elation score ([1]; 25 μg bid): −1.1 | Hallucinations score ([1]; 25 μg bid): −1.5 | Irritability score ([1]; 25 μg bid): −0.4 | Wandering score ([1]; 25 μg bid): −1.2 | Total NPI score ([1]; 25 μg bid, p 0.064 vs placebo): +0.7 | Agitation score ([1]; 50 μg uid): −0.6 | Anxiety score ([1]; 50 μg uid): −1.5 | Apathy score ([1]; 50 μg uid): −1.5 | Delusions score ([1]; 50 μg uid): −0.6 | Depression score ([1]; 50 μg uid): −0.6 | Disinhibition score ([1]; 50 μg uid): −0.7 | Elation score ([1]; 50 μg uid): −1.9 | Hallucinations score ([1]; 50 μg uid): −0.7 | Irritability score ([1]; 50 μg uid): −0.9 | Wandering score ([1]; 50 μg uid): −1.0 | Total NPI score ([1]; 50 μg uid, p 0.026 vs placebo): +0.3 | Agitation endpoint score: change from baseline [1, 5]: 0 | Anxiety endpoint score: change from baseline [1, 5]: −1.9 | Apathy endpoint score: change from baseline [1, 5]: −1.4 | Delusions endpoint score: change from baseline [1, 5]: −0.8 | Depression endpoint score: change from baseline [1, 5]: 0 | Disinhibition endpoint score: change from baseline [1, 5]: −0.8 | Elation endpoint score: change from baseline [1, 5]: −1.7 | Hallucinations endpoint score: change from baseline [1, 5]: −2.1 | Irritability endpoint score: change from baseline [1, 5]: −0.7 | Wandering endpoint score: change from baseline [1, 5]: −1.7 | Total NPI endpoint score: change from baseline ([1]; Patients with baseline NPI >20, 25 μg bid, p 0.043 vs placebo): −4.0 | Agitation endpoint score: change from baseline [1, 6]: −0.6 | Anxiety endpoint score: change from baseline [1, 6]: −1.8 | Apathy endpoint score: change from baseline [1, 6]: −1.6 | Delusions endpoint score: change from baseline [1, 6]: −1.4 | Depression endpoint score: change from baseline [1, 6]: −1.1 | Disinhibition endpoint score: change from baseline [1, 6]: −1.1 | Elation endpoint score: change from baseline [1, 6]: −2.5 | Hallucinations endpoint score: change from baseline [1, 6]: −1.4 | Irritability endpoint score: change from baseline [1, 6]: −1.2 | Wandering endpoint score: change from baseline [1, 6]: −1.3 | Total NPI endpoint score: change from baseline ([1]; Patients with baseline NPI >20, 50 μg uid, p 0.019 vs placebo): −6.1 | NPI total score, country adjusted difference vs placebo ([1]; 50 μg uid, p=0.026, 95% CI −4.1, −0.3): −2.1 | NPI total score, country adjusted difference vs placebo ([1]; 25 kg bid (so in the source), p=0.064, 95% CI −3.8, 0.1): −1.8 | total NPI score, country adjusted difference vs placebo ([1]; patients with baseline NPI>20, 25 μg bid, p=0.043, 95% CI −14.1, −0.2): −7.18 | total NPI score, country adjusted difference vs placebo ([1]; patients with baseline NPI>20, 50 μg uid, p=0.019, 95% CI −14.4, −1.3): −7.86 | catalepsy [2]: did not produce catalepsy | dose at which reversal of amphetamine-induced hyperactivity reached significance (P<0.01) ([3]; 0.01-0.3 mg/kg po): 0.3 mg/kg | ED50 for reversal of amphetamine-induced hyperactivity ([3]; po, 95% CI=0.14-0.75): 0.25 mg/kg

O=C(CCCN1CCC(O)(c2ccc(Cl)cc2)CC1)c1ccc(F)cc1 [haloperidol, Haloperidol]
rats in which catalepsy was produced [4]: 6 of 6
